Source: ChEMBL document CHEMBL4819125, “Synthesis and anti-proliferation activity of mogrol derivatives bearing quinoline and triazole moieties” (Bioorg Med Chem Lett, 2021)
Calls of active or inactive are those of the source. No cut-off for these calls is given here.

Key:
A549 [1] = assay: Antiproliferative activity against human A549 cells assessed as reduction in cell growth at 30 uM by CCK8 assay relative to control; format: functional
NCI-H460 = assay: Antiproliferative activity against human NCI-H460 cells assessed as reduction in cell growth at 30 uM by CCK8 assay relative to control; format: functional
A549 [2] = assay: Antiproliferative activity against human A549 cells assessed as reduction in cell growth by CCK8 assay; format: functional, cell-based
A549 [3] = assay: Induction of apoptosis in human A549 cells assessed as viable cells at 3.75 uM incubated for 72 hrs by annexin V-FITC and PI staining based flow cytometry analysis (reference value: 95.98 %); format: functional; conditions: read-out: Activity
A549 [4] = assay: Induction of apoptosis in human A549 cells assessed as early apoptotic cells at 3.75 uM incubated for 72 hrs by annexin V-FITC and PI staining based flow cytometry analysis (reference value: 2.25 %); format: functional
A549 [5] = assay: Induction of apoptosis in human A549 cells assessed as late apoptotic cells at 3.75 uM incubated for 72 hrs by annexin V-FITC and PI staining based flow cytometry analysis (reference value: 0.5 %); format: functional
A549 [6] = assay: Induction of apoptosis in human A549 cells assessed as necrotic cells at 3.75 uM incubated for 72 hrs by annexin V-FITC and PI staining based flow cytometry analysis (reference value: 1.27 %); format: functional
A549 [7] = assay: Induction of apoptosis in human A549 cells assessed as viable cells at 7.5 uM incubated for 72 hrs by annexin V-FITC and PI staining based flow cytometry analysis (reference value: 95.98 %); format: functional; conditions: read-out: Activity
A549 [8] = assay: Induction of apoptosis in human A549 cells assessed as early apoptotic cells at 7.5 uM incubated for 72 hrs by annexin V-FITC and PI staining based flow cytometry analysis (reference value: 2.25 %); format: functional
A549 [9] = assay: Induction of apoptosis in human A549 cells assessed as late apoptotic cells at 7.5 uM incubated for 72 hrs by annexin V-FITC and PI staining based flow cytometry analysis (reference value: 0.5 %); format: functional
A549 [10] = assay: Induction of apoptosis in human A549 cells assessed as necrotic cells at 7.5 uM incubated for 72 hrs by annexin V-FITC and PI staining based flow cytometry analysis (reference value: 1.27 %); format: functional
A549 [11] = assay: Induction of apoptosis in human A549 cells assessed as viable cells at 15 uM incubated for 72 hrs by annexin V-FITC and PI staining based flow cytometry analysis (reference value: 95.98 %); format: functional; conditions: read-out: Activity
A549 [12] = assay: Induction of apoptosis in human A549 cells assessed as early apoptotic cells at 15 uM incubated for 72 hrs by annexin V-FITC and PI staining based flow cytometry analysis (reference value: 2.25 %); format: functional
A549 [13] = assay: Induction of apoptosis in human A549 cells assessed as late apoptotic cells at 15 uM incubated for 72 hrs by annexin V-FITC and PI staining based flow cytometry analysis (reference value: 0.5 %); format: functional
A549 [14] = assay: Induction of apoptosis in human A549 cells assessed as necrotic cells at 15 uM incubated for 72 hrs by annexin V-FITC and PI staining based flow cytometry analysis (reference value: 1.27 %); format: functional
A549 [15] = assay: Induction of apoptosis in human A549 cells assessed as early apoptotic cells incubated for 72 hrs by annexin V-FITC and PI staining based flow cytometry analysis; format: functional, cell-based; conditions: dose 3.75-15 µM
A549 [16] = assay: Induction of apoptosis in human A549 cells assessed as late apoptotic cells incubated for 72 hrs by annexin V-FITC and PI staining based flow cytometry analysis; format: functional, cell-based; conditions: dose 3.75-15 µM
A549 [17] = assay: Induction of cell cycle arrest in human A549 cells assessed as G0/G1 phase at 3.75 uM incubated for 72 hrs by PI staining based flow cytometry analysis (reference value: 53.87 %); format: functional
A549 [18] = assay: Induction of cell cycle arrest in human A549 cells assessed as G2/M phase at 3.75 uM incubated for 72 hrs by PI staining based flow cytometry analysis (reference value: 14.78 %); format: functional
A549 [19] = assay: Induction of cell cycle arrest in human A549 cells assessed as S phase at 3.75 uM incubated for 72 hrs by PI staining based flow cytometry analysis (reference value: 31.35 %); format: functional
A549 [20] = assay: Induction of cell cycle arrest in human A549 cells assessed as G0/G1 phase at 7.5 uM incubated for 72 hrs by PI staining based flow cytometry analysis (reference value: 53.87 %); format: functional
A549 [21] = assay: Induction of cell cycle arrest in human A549 cells assessed as G2/M phase at 7.5 uM incubated for 72 hrs by PI staining based flow cytometry analysis (reference value: 14.78 %); format: functional
A549 [22] = assay: Induction of cell cycle arrest in human A549 cells assessed as S phase at 7.5 uM incubated for 72 hrs by PI staining based flow cytometry analysis (reference value: 31.35 %); format: functional
A549 [23] = assay: Induction of cell cycle arrest in human A549 cells assessed as G0/G1 phase at 15 uM incubated for 72 hrs by PI staining based flow cytometry analysis (reference value: 53.87 %); format: functional
A549 [24] = assay: Induction of cell cycle arrest in human A549 cells assessed as G2/M phase at 15 uM incubated for 72 hrs by PI staining based flow cytometry analysis (reference value: 14.78 %); format: functional
A549 [25] = assay: Induction of cell cycle arrest in human A549 cells assessed as S phase at 15 uM incubated for 72 hrs by PI staining based flow cytometry analysis (reference value: 31.35 %); format: functional
A549 [26] = assay: Induction of cell cycle arrest in human A549 cells assessed as G0/G1 phase incubated for 72 hrs by PI staining based flow cytometry analysis; format: functional; conditions: dose 3.75-15 µM
[27] = molecular target: Signal transducer and activator of transcription 3 (Homo sapiens) (UniProt P40763); assay: Inhibition of STAT3 in human A549 cells assessed as reduction in STAT3 phosphorylation incubated for 72 hrs by Western blot analysis; format: cell-based; conditions: dose 3.75-15 µM
Chain of Signal transducer and activator of transcription 3 (Homo sapiens) (P40763 whole entry): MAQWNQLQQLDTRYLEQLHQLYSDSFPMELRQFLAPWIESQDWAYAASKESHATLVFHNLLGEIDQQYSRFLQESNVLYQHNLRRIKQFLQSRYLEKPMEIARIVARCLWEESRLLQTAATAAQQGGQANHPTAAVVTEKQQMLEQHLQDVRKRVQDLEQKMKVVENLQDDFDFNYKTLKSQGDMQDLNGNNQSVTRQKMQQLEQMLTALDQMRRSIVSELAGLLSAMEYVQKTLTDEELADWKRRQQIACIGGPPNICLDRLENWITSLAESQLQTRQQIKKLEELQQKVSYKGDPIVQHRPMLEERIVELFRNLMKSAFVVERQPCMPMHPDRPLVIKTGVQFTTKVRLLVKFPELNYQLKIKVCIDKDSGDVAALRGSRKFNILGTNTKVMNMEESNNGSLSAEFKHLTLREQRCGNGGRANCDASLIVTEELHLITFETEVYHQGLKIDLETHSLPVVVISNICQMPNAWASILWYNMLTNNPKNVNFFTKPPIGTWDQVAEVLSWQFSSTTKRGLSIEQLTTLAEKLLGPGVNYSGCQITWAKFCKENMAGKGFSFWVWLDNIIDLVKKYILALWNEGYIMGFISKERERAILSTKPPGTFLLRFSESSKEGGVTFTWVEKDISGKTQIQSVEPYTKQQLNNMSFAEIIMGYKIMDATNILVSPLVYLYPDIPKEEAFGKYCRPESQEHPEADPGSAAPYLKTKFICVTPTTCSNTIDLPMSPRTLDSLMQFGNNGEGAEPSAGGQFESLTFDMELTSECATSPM

A549 [28] = assay: Effect on STAT3 expression in human A549 cells at 3.75 to 15 uM incubated for 72 hrs by Western blot analysis; format: functional, cell-based; conditions: dose 3.75-15 µM

IC50 (A549 [2]): 4.47 µM
inhibition [27]: Dose-Dependent Effect
SMILES: C[C@H](CC[C@@H](O)C(C)(C)O)[C@H]1CC[C@@]2(C)[C@@H]3CC=C4[C@@H](CC[C@H](O)C4(C)C)[C@]3(C)[C@H](OC(=O)Cn3cc(-c4cccc(Cl)c4)nn3)C[C@]12C
inhibition at 30 µM (A549 [1]): 90.2%
inhibition at 30 µM (NCI-H460): 33.8%
viability at 3.75 µM (A549 [3]): 94.9%
Activity (A549 [4]): 2.28%
Activity (A549 [5]): 0.79%
Activity (A549 [6]): 2.07%
viability at 7.5 µM (A549 [7]): 91.7%
Activity (A549 [8]): 3.66%
Activity (A549 [9]): 1.27%
Activity (A549 [10]): 3.37%
viability at 15 µM (A549 [11]): 91.7%
Activity (A549 [12]): 4.8%
Activity (A549 [13]): 1.53%
Activity (A549 [14]): 1.92%
Activity (A549 [15]): Dose-Dependent Effect
Activity (A549 [16]): Dose-Dependent Effect
Activity (A549 [17]): 55.45%
Activity (A549 [18]): 13.93%
Activity (A549 [19]): 30.62%
Activity (A549 [20]): 60.04%
Activity (A549 [21]): 11.5%
Activity (A549 [22]): 28.46%
Activity (A549 [23]): 72.72%
Activity (A549 [24]): 11.25%
Activity (A549 [25]): 16.03%
Activity (A549 [26]): Dose-Dependent Effect
inhibition (A549 [28]): Active
